According to US9216247B2, “Buffered compositions for dialysis” (Advanced Renal Technologies, priority 1998, dated 2015):
Like-named read-outs stand apart in the source and are kept apart here.

Assays:
[1] = system: coagulation behavior of blood; experiment: clotting time of patients dialysed with citric acid dialysate; format: in vivo; conditions: 2.4 mEq/L of citric acid in dialysate; beyond that achieved with heparin

Row | increase in patient's clotting time [1] | Structure (SMILES) | buffering action (bicarbonate concentrate solutions of 8.1<pH<8.3) | buffering action (bicarbonate concentrate solutions with a pH of <8.0)
1 | no measurable increase | O=C(O)CC(O)(CC(=O)O)C(=O)O [citric acid, Citric acid] |  | 
2 |  | CC(=O)[O-].[Na+] [sodium acetate] | evident | not apparent
